Our source for the inhibition values is paper PMC5085100, “Conjugation to the sigma-2 ligand SV119 overcomes uptake blockade and converts dm-Erastin into a potent pancreatic cancer therapeutic” (Oncotarget, 2016).

The assay deals with T1, cystine/glutamate antiporter (system xc-) (Homo sapiens, UniProt Q9UPY5).
T1 construct: gene SLC7A11
T1 sequence (Q9UPY5 1-501): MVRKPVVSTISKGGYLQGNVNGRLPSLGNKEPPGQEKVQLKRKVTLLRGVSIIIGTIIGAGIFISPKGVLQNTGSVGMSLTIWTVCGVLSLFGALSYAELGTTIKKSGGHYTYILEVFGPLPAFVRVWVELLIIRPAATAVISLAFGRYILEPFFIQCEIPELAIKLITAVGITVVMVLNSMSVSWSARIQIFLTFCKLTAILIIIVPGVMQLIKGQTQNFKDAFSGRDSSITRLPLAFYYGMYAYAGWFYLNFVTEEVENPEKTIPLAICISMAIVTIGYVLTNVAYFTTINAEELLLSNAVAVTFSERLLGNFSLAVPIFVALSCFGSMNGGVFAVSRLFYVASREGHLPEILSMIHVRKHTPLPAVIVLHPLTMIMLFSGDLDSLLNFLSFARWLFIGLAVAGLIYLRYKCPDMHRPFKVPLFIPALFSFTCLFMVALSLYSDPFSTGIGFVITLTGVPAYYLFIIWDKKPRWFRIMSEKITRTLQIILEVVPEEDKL
T1 sequence (P08195 2-529 partner): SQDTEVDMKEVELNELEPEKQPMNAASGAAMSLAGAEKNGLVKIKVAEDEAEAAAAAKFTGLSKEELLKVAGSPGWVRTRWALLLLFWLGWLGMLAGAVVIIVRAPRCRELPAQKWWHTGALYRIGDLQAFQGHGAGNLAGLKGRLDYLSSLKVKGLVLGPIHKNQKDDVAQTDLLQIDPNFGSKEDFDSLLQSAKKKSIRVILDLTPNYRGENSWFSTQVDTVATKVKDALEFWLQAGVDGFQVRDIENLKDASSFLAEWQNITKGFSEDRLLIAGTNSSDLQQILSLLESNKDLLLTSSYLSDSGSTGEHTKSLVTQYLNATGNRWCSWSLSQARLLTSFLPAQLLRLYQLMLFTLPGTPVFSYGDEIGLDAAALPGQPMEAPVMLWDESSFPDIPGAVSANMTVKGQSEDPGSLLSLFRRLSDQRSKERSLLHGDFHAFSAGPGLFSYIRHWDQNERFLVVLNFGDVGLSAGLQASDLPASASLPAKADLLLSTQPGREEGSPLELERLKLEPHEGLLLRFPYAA
As to the kind of experiment: […]-cystine uptake inhibition in AsPC-1 cells, […] min at […]. It is filed as cell-based. Particulars: ASPC1; read-out: % blockade at 200 μM.

Regarding `CCOc1ccccc1-n1c(CN2CCN(C(=O)COc3ccc(CNCCCCCCN4C5CCCC4CC(OC(=O)Nc4cc(C)ccc4OC)C5)cc3)CC2)nc2ccccc2c1=O` (stereo not shown) [SW V-49], the inhibition at 200 µM is 85%.
